Laboratory results taken from US8044069B2, “Compounds as calcium channel blockers” (Abbott Laboratories, priority 2008, dated 2011).

Biological target: human Cav2.2 (Homo sapiens, UniProt Q00975)
Assay: Assessment of calcium channel activity using FLIPR (Ca2+ influx in IMR32 cells)
Assay type: cell-based
Conditions: IMR32 cells endogenously expressing human Cav2.2; 60 minute pre-incubation; 2 μM nifedipine; depolarized with 80 mM KCl, 5 mM CaCl2
Procedure, shortened: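 IMR32 cells were dye-loaded and pre-incubated 60 min with compound (10 μM to 0.1 nM) in 1.3 mM CaCl2 plus 2 μM nifedipine to block L-type channels. Cells were then depolarized with 80 mM KCl while Ca2+ was raised to 5 mM, and FLIPR read the influx. IC50 came from a sigmoidal fit of % inhibition versus the no-inhibitor control.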

Sequence of human Cav2.2 (Q00975 whole entry): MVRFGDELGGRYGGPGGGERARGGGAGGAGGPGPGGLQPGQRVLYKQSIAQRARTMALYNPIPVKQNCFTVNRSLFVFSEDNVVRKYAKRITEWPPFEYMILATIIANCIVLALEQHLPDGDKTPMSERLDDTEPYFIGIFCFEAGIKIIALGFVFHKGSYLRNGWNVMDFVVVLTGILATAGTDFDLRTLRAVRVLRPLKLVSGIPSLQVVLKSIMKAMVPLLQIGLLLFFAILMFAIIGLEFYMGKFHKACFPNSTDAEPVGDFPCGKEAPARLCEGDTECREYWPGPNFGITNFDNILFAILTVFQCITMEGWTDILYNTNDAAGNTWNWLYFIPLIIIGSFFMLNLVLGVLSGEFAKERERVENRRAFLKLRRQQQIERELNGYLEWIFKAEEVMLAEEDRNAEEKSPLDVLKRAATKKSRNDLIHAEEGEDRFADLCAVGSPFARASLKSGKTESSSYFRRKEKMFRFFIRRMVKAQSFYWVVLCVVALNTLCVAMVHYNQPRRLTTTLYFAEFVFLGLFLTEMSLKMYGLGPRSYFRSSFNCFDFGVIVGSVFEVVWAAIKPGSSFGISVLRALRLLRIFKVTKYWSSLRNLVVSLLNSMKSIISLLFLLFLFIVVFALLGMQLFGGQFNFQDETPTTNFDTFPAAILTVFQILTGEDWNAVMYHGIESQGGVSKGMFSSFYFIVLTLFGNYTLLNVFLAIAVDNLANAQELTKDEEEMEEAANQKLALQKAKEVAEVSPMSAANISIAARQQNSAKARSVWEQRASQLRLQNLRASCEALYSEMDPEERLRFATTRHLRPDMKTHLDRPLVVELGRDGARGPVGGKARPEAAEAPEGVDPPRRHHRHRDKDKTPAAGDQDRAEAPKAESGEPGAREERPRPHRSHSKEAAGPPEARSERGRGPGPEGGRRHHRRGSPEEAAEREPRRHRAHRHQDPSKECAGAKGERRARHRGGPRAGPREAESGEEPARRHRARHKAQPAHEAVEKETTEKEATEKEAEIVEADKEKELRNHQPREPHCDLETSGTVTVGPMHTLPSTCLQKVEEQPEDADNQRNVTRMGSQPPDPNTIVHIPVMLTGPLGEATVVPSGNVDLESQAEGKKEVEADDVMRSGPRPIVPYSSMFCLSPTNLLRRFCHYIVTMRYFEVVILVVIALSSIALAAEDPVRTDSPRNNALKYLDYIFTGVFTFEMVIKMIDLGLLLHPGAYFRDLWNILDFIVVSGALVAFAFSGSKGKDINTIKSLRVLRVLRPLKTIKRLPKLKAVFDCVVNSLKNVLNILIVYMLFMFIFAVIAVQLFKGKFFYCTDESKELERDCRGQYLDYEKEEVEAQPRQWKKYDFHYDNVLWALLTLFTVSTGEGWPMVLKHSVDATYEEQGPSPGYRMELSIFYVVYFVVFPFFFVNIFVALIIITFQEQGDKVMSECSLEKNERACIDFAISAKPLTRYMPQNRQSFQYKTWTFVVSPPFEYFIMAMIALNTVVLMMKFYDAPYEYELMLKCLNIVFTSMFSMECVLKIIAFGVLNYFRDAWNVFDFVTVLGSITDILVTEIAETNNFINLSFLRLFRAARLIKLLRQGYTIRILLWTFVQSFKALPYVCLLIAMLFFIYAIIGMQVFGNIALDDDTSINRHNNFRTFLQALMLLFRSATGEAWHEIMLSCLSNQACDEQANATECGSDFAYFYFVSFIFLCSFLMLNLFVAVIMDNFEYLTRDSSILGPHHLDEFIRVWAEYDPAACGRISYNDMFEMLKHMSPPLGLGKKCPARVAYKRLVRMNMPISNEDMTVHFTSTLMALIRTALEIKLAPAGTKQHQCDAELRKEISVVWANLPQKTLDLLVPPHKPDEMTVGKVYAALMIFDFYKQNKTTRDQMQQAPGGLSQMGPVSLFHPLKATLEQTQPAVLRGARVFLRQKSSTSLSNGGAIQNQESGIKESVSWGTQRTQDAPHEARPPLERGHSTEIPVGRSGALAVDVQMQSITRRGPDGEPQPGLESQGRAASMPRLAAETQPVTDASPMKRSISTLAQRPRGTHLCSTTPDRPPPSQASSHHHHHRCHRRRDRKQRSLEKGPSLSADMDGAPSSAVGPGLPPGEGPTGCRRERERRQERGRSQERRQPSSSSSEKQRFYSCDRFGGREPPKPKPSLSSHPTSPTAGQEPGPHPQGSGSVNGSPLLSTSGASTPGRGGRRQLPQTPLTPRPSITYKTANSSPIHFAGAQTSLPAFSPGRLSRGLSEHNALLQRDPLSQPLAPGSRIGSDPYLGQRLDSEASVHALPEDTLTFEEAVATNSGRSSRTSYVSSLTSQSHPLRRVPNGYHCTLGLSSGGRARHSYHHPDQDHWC
Sequence of human Cav2.2 (P54289 25-951 partner limits assumed): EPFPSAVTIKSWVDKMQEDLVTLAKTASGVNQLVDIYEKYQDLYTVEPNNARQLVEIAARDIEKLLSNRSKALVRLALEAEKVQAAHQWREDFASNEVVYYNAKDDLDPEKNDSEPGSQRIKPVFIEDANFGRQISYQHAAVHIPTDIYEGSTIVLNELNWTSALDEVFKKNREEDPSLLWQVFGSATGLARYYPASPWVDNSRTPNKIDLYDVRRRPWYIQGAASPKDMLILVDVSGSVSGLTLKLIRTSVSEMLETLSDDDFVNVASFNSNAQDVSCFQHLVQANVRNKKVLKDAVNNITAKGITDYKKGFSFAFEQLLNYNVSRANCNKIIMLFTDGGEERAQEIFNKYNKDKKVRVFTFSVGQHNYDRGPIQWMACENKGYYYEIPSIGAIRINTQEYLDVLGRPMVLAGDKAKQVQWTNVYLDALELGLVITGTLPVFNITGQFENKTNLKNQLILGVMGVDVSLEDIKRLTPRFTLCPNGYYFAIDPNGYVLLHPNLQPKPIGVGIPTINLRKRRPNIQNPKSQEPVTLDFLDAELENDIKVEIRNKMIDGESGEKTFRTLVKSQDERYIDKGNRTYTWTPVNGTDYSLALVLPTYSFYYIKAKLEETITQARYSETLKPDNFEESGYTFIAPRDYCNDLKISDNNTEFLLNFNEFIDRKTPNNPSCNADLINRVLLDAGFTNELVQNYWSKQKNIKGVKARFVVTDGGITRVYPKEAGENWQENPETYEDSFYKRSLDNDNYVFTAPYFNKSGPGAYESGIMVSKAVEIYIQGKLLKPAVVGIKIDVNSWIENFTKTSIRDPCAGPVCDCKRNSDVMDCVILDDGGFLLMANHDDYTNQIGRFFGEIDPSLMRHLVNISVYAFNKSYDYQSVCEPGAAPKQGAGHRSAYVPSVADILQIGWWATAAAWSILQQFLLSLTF
Sequence of human Cav2.2 (P54289 952-1103 partner limits assumed): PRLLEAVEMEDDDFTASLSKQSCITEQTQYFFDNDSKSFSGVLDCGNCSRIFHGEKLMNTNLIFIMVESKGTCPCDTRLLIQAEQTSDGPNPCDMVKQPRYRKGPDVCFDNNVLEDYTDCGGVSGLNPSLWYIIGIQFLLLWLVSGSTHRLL
Sequence of human Cav2.2 (P54284 whole entry partner): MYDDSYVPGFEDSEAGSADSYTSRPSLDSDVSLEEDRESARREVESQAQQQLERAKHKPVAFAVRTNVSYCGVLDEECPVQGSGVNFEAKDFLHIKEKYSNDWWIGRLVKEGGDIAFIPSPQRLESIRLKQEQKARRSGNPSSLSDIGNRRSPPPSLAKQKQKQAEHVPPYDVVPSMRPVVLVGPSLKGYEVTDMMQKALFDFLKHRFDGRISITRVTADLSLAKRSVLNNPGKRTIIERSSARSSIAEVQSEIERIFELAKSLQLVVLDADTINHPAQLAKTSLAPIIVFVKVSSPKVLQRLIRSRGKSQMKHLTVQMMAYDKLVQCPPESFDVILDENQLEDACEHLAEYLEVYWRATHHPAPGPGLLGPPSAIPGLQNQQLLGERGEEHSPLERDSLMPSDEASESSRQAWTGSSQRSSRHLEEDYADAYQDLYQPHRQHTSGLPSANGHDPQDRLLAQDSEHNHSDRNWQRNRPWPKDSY

Q: `COc1ccc(C2(c3ccc(OC)cc3)CCCN(CCCN3CCN(Cc4cc(OC)cc(OC)c4)CC3)C2=O)cc1` [Example 131, 1-{3-[4-(3,5-dimethoxybenzyl)piperazin-1-yl]propyl}-3,3-bis(4-methoxyphenyl)piperidin-2-one] was tested. Which IC50 did it give?
A: Its IC50 is 2.3 µM.

Q: `COc1ccc(C2(c3ccc(OC)cc3)CCCN(CCN3CCN(Cc4cc(OC)cc(OC)c4)CC3)C2=O)cc1` [Example 132, 1-{2-[4-(3,5-dimethoxybenzyl)piperazin-1-yl]ethyl}-3,3-bis(4-methoxyphenyl)piperidin-2-one] was tested. Which IC50 did it give?
A: The IC50 was 2.3 µM.

Q: Which IC50 does the source give for `COc1cc(CN2CCN(CCCN3CCCC(c4cccc(OC)c4)(C(C)C)C3=O)CC2)cc(OC)c1` (stereo not drawn) [Example 133, 1-{3-[4-(3,5-dimethoxybenzyl)piperazin-1-yl]propyl}-3-isopropyl-3-(3-methoxyphenyl)piperidin-2-one] here?
A: Its IC50 is 0.67 µM.

Q: With `O=C1N(CCN2CCN(c3ncccn3)CC2)CCCC1(c1ccccc1)c1ccccc1` [Example 134, 3,3-diphenyl-1-[2-(4-pyrimidin-2-ylpiperazin-1-yl)ethyl]piperidin-2-one] as the molecule, how does the IC50 read?
A: Its IC50 is 6.48 µM.

Q: Which IC50 does the source give for `O=C1N(CCCN2CCN(c3ncccn3)CC2)CCCC1(c1ccc(F)cc1)c1ccc(F)cc1` [Example 135, 3,3-bis(4-fluorophenyl)-1-[3-(4-pyrimidin-2-ylpiperazin-1-yl)propyl]piperidin-2-one] here?
A: Its IC50 is 3.01 µM.

Q: How did the IC50 turn out when `O=C1N(CCN2CCN(c3ncccn3)CC2)CCCC1(c1ccc(F)cc1)c1ccc(F)cc1` [Example 136, 3,3-bis(4-fluorophenyl)-1-[2-(4-pyrimidin-2-ylpiperazin-1-yl)ethyl]piperidin-2-one] was run?
A: The IC50 was 3.32 µM.

Q: Which IC50 does the source give for `COc1ccccc1N1CCN(CCN2CCCC(c3ccc(F)cc3)(c3ccc(F)cc3)C2=O)CC1` [Example 137, 3,3-bis(4-fluorophenyl)-1-{2-[4-(2-methoxyphenyl)piperazin-1-yl]ethyl}piperidin-2-one] here?
A: The IC50 was 1.1 µM.

Q: How did the IC50 turn out when `COc1ccccc1N1CCN(CCCN2CCCC(c3ccc(F)cc3)(c3ccc(F)cc3)C2=O)CC1` [Example 138, 3,3-bis(4-fluorophenyl)-1-{3-[4-(2-methoxyphenyl)piperazin-1-yl]propyl}piperidin-2-one] was run?
A: The IC50 was 1.42 µM.

Q: With `O=C1N(CCN2CCN(c3cccc(C(F)(F)F)c3)CC2)CCCC1(c1ccc(F)cc1)c1ccc(F)cc1` [Example 139, 3,3-bis(4-fluorophenyl)-1-(2-{4-[3-(trifluoromethyl)phenyl]piperazin-1-yl}ethyl)piperidin-2-one] as the molecule, how does the IC50 read?
A: The IC50 was 4.77 µM.

Q: Which IC50 does the source give for `O=C1N(CCCN2CCN(c3cccc(C(F)(F)F)c3)CC2)CCCC1(c1ccccc1)c1ccccc1` [Example 140, 3,3-diphenyl-1-(3-{4-[3-(trifluoromethyl)phenyl]piperazin-1-yl}propyl)piperidin-2-one] here?
A: Its IC50 is 1.25 µM.

Q: How did the IC50 turn out when `O=C1N(CCN2CCN(c3cccc(C(F)(F)F)c3)CC2)CCCC1(c1ccccc1)c1ccccc1` [Example 141, 3,3-diphenyl-1-(2-{4-[3-(trifluoromethyl)phenyl]piperazin-1-yl}ethyl)piperidin-2-one] was run?
A: Its IC50 is 1.56 µM.

Q: With `O=C1N(CCCN2CCN(c3cccc(C(F)(F)F)c3)CC2)CCCC1(c1ccc(F)cc1)c1ccc(F)cc1` [Example 142, 3,3-bis(4-fluorophenyl)-1-(3-{4-[3-(trifluoromethyl)phenyl]piperazin-1-yl}propyl)piperidin-2-one] as the molecule, how does the IC50 read?
A: Its IC50 is 1.23 µM.

Q: With `COc1ccc(CCN(C)C(=O)CN2CCCC(c3ccccc3)(c3ccccc3)C2=O)cc1OC` [Example 143, N-[2-(3,4-dimethoxyphenyl)ethyl]-N-methyl-2-(2-oxo-3,3-diphenylpiperidin-1-yl)acetamide] as the molecule, how does the IC50 read?
A: Its IC50 is 11.6 µM.

Q: Which IC50 does the source give for `O=C1N(S(=O)(=O)c2cccc(C(F)(F)F)c2)CCC1(c1ccccc1)c1ccccc1` [Example 144, 3,3-diphenyl-1-{[3-(trifluoromethyl)phenyl]sulfonyl}pyrrolidin-2-one] here?
A: Its IC50 is 5.48 µM.

Q: `O=C1N(S(=O)(=O)c2cccc(C(F)(F)F)c2)CCC1(c1ccc(F)cc1)c1ccc(F)cc1` [Example 145, 3,3-bis(4-fluorophenyl)-1-{[3-(trifluoromethyl)phenyl]sulfonyl}pyrrolidin-2-one] was tested. Which IC50 did it give?
A: The IC50 was 9.64 µM.
